From ChEMBL document CHEMBL1129997 (J Med Chem, 1997)

What was measured:
T78-1 = assay: Cytotoxicity in T78-1 (NR-negative) cell lines; type: functional, cell-based; conditions: Cricetulus griseus
T78-1/T79-A3 = assay: TE50 is termed as Bystander effect evaluated in T78-1 and T79-A3 cell lines; type: functional, Cricetulus griseus; parameters: unit not given beside the values
[1] = molecular target: T1, Modulator of drug activity A (Escherichia coli O157:H7) (UniProt Q8X6S1); assay: IC50 ratio for NR-positive and NR-negative cell lines; type: functional
T1 sequence (whole entry): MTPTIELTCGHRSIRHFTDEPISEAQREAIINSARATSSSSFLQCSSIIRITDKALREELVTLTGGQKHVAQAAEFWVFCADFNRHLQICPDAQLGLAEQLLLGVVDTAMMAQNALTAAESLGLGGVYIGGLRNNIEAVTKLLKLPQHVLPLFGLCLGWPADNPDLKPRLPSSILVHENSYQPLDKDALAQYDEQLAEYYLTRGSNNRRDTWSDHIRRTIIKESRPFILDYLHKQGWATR

CS(=O)(=O)CCN(CCCl)c1cc(C(N)=O)c([N+](=O)[O-])cc1[N+](=O)[O-]
IC50 (T78-1): > 1000 µM

NC(=O)c1c([N+](=O)[O-])ccc(N(CCCl)CCCl)c1[N+](=O)[O-]
IC50 (T78-1): > 1000 µM

NC(=O)c1cc(N2CC2)c([N+](=O)[O-])cc1[N+](=O)[O-] [TRETAZICAR]
IC50 (T78-1): 158 µM | TE50 (T78-1/T79-A3): 1

NC(=O)c1cc([N+](=O)[O-])cc([N+](=O)[O-])c1N(CCI)CCI
IC50 (T78-1): 58 µM | TE50 (T78-1/T79-A3): 0.4

NC(=O)c1cc(N(CCBr)CCBr)c([N+](=O)[O-])cc1[N+](=O)[O-]
Ratio [1]: 2530 | IC50 (T78-1): 633 µM | TE50 (T78-1/T79-A3): 0.1

O=C(NCC(O)CO)c1cc([N+](=O)[O-])cc([N+](=O)[O-])c1N(CCI)CCI (stereo not drawn)
Ratio [1]: 21.5 | IC50 (T78-1): 86 µM | TE50 (T78-1/T79-A3): 7

NC(=O)c1cc([N+](=O)[O-])cc([N+](=O)[O-])c1N(CCBr)CCBr
IC50 (T78-1): 17.5 µM | TE50 (T78-1/T79-A3): 0.22

CS(=O)(=O)c1cc([N+](=O)[O-])c(C(N)=O)cc1N(CCCl)CCCl
Ratio [1]: > 17 | IC50 (T78-1): > 1000 µM

CS(=O)(=O)CCN(CCS(C)(=O)=O)c1cc(C(N)=O)c([N+](=O)[O-])cc1[N+](=O)[O-]
IC50 (T78-1): > 1000 µM

O=C(NCC(O)CO)c1cc([N+](=O)[O-])cc([N+](=O)[O-])c1N(CCCl)CCCl (stereo not drawn)
IC50 (T78-1): 919 µM | TE50 (T78-1/T79-A3): 12

NC(=O)c1cc(N(CCCl)CCCl)c([N+](=O)[O-])cc1[N+](=O)[O-]
Ratio [1]: 63 | IC50 (T78-1): 895 µM | TE50 (T78-1/T79-A3): 3.7

O=C(NCC(O)CO)c1cc(N(CCCl)CCCl)c([N+](=O)[O-])cc1[N+](=O)[O-] (stereo not drawn)
Ratio [1]: > 55 | IC50 (T78-1): > 5000 µM

CN(C)CCNC(=O)c1c([N+](=O)[O-])ccc(N(CCCl)CCCl)c1[N+](=O)[O-]
Ratio [1]: 0.8 | IC50 (T78-1): 722 µM

O=C(NCC(O)CO)c1cc(N(CCI)CCI)c([N+](=O)[O-])cc1[N+](=O)[O-] (stereo not drawn)
IC50 (T78-1): 793 µM | TE50 (T78-1/T79-A3): 0.45

NC(=O)c1cc(N(CCI)CCI)c([N+](=O)[O-])cc1[N+](=O)[O-]
Ratio [1]: 494 | IC50 (T78-1): 71 µM | TE50 (T78-1/T79-A3): 0.3

NC(=O)c1cc([N+](=O)[O-])cc([N+](=O)[O-])c1N(CCCl)CCCl
Ratio [1]: > 133 | IC50 (T78-1): > 1000 µM
